The nature of assay [1]: Active oxygen scavenging test (xanthine/xanthine oxidase, NBT). The class given is biochemical. Conditions: snail slime filtrates, absorbance 540 nm. How it is done:
In the active oxygen scavenging test, changes on the absorbance are measured using the oxidation of nitroblue tetrazolium (NBT) by active oxygen by using active oxygen generation upon enzymatic reaction of xanthine/xanthine oxidase (Sigma), thus the scavenging ability of the active oxygen can be confirmed.
2.4 ml of sodium carbonate (Na2CO3), 0.1 ml of xanthine (Sigma), 0.1 ml of ethylene diamine tetra acetic acid (EDTA), 0.1 ml of bovine serum albumin (BSA, Sigma), 0.1 ml of NBT, and 1 ml of the snail slime filtrates prepared in Examples 1 and 2 and Comparative Examples 1 and 2 were added, vortexing was carried out by using a vortex mixer (Type 37600 Mixer, Mini mix, USA), the mixture was left at 25° C. for 10 minutes. After 0.1 ml of xanthine oxidase was added and reacted at 25° C. for 20 minutes, the reaction was stopped by inputting 6 mM of CuCl2, and the absorbance was measured at the wavelength of 540 nm by using a microplate reader (UVT-06685, Thermo max, USA).
The control group in the active oxygen scavenging activity test was measured in the same manner by inputting third distilled water instead of the sample solution. […]
Active oxygen scavenging rate (%)=100−((absorbance of sample/absorbance of control group)×100)

The nature of assay [2]: Free radical scavenging test (DPPH). Type of assay: biochemical. The following applies: snail slime filtrates, 37° C. 15 minutes, absorbance 540 nm. How it is done:
A free radical scavenging test and a reactive oxygen scavenging test were performed in order to confirm the antioxidant effect of the snail slime filtrates prepared in Examples 1 and 2 and Comparative Examples 1 and 2, as a verifying test for a skin aging improvement effect.
The snail slime filtrates prepared in the above Examples 1 and 2 and Comparative Examples 1 and 2 were diluted with methanol in a predetermined concentration, and 1 ml of the dilution was mixed with 1 ml of a 0.1 mM 2,2-diphenyl-1-picryl-hydrazyl radical (DPPH, Sigma) solution. After the mixture leaves at 37° C. for 15 minutes, the absorbance was measured at the wavelength of 540 nm by using a microplate reader (Thermo max, USA).
In the above free radical scavenging test, the control group was measured In the same manner by inputting 1 ml of DPPH and 1 ml of methanol, and color correction values were obtained with respect to each of the sample and the control group by inputting 1 ml of methanol and 1 ml of sample.
SC50 is the concentration of the sample required to scavenge 50% of the free radicals, and the smaller value indicates the higher antioxidant activity.
Free radical scavenging rate (%)=100−((absorbance of sample/absorbance of control group)×100)
Background: Loss of DPPH colour is used to gauge radical scavenging.

A short description of assay [3]: Skin moisturizing effect, capacitance measurement on flexor surface of the forearm. Conditions: 1 wt % aqueous solution, 2.0 mg/cm2. The class given is in vivo, human (30 females in their 20s and 30s). How it is done: Measurement of moisturizing effect of snail slime filtrates prepared in Examples 1 and 2 and Comparative Examples 1 and 2 was carried out by a capacitance measurement scheme using an oil and moisture analyzer (WSK-P500U, Inforward. Inc., Japan). 1 wt % an aqueous solution of the snail slime filtrates prepared in Examples 1 and 2 and Comparative Examples 1 and 2 was compared with 1 wt % aqueous solution of hyaluronic acid sodium salt (Sigma) which is known to be excellent in a skin moisturizing effect based on various studies.
30 females in their 20s and 30s were targeted, a flexor surface of the forearm was allowed to acclimate to a constant temperature and humidity chamber (22° C. and 40-60% of relative humidity) for 20 minutes right before the test starts, and the moisture of the skin was constantly maintained. Then, after measuring the initial moisture content of an application site of each sample using the oil and moisture analyzer (WSK-P500U, Inforward. Inc., Japan), each of the samples at 2.0 mg/cm2 was applied at a different position for each examinee to minimize an error according to the flexor surface of the forearm. The skin moisture was firstly measured at time intervals of 10 minutes, 30 minutes, 50 minutes, 90 minutes, and 120 minutes after the application, and after 2 hours, the skin moisture was measured again.
Each measurement site was measured repeatedly for three times and skin moisture was calculated by the average value.

Regarding `Cc1cc(C(C)(C)C)c(O)c(C(C)(C)C)c1` [BHT], the “Active oxygen scavenging rate IC50” value in assay [1] is 154 ppm. The “Free radical scavenging rate SC50” value in assay [2] was determined as 125 ppm.

hyaluronic acid sodium salt: the “Moisture content subject to time after application” value in assay [3] (10 minutes after application) was found to be 61.31 A.U; in assay [3] (30 minutes after application), 58.24 A.U; in assay [3] (50 minutes after application) it was 57.21 A.U; in assay [3] (90 minutes after application), 55.87 A.U; in assay [3] (120 minutes after application), 52.11 A.U.

(Values after patent US20180064635A1, “COSMETIC COMPOSITION COMPRISING SLIME OF SNAIL FED WITH BERRY FRUITS AND PREPARATION METHOD THEREOF” (CREALAND CO., LTD, priority 2015, published 2018).)
